Measured values: US20250250303A1 (THE TRUSTEES OF COLUMBIA UNIVERSITY IN THE CITY OF NEW YORK, priority 2022, published 2025)
Bridge positions count the residues as written; N and C are the ends. Ends that are not written are not given here.

Legend:
[1] = Insulin tolerance test; assay type: in vivo, mice; settings: intraperitoneal; for blood glucose levels in ITT: FIGS. 10A, 8F, 8G; for blood glucose in insulin tolerance assays: FIGS. 12B, 12C
Description: Insulin tolerance tests were performed as described previously with some modification. Briefly, 2-3 months old male mice were fasted for 2 hr. and their blood glucose levels (T=0) were measured with tail bleeding using a glucometer (AlphaTRAK). After then, mice were injected intraperitoneally with Humulin (6 nmol/kg body weight), S597 (9 nmol/kg), S597-S20D (9 nmol/kg), S597-W6A (9 nmol/kg), S597-F27A (9 nmol/kg), or S597-N20 (27 nmol/kg), and their blood glucose levels were measured at the indicated time points after injection.

[2] = target: T1, IR wild-type (WT) (Homo sapiens, UniProt P06213); test: IR activation (auto-phosphorylation) assay in 293 FT cells expressing IR WT; assay type: cell-based; settings: 293 FT cells expressing IR WT; 10 nM for 10 min
T1 construct: expressed in transfected cells; host or cells: 293 FT cells
Description: The insulin receptor signaling assay was performed as described earlier with some modifications. For the activation assay, the short isoform of human IR in pCS2-MYC was used as described previously. Plasmid transfections into 293 FT cells were performed with Lipofectamin™ 2000 (Invitrogen).
(§1) The cells were incubated with the lysis buffer B [50 mM Hepes pH 7.4, 150 mM NaCl, 10% Glycerol, 1% Triton X-100, 1 mM EDTA, 100 mM sodium fluoride, 2 mM sodium orthovanadate, 20 mM sodium pyrophosphate, 0.5 mM dithiothreitol (DTT), 2 mM phenylmethylsulfonyl fluoride (PMSF)] supplemented with complete Protease Inhibitor Cocktail (Roche), PhosSTOP (Sigma), and 25 U/ml turbo nuclease (Accelagen) on ice for 1 hr. After centrifuge at 20,817 g at 4° C. for 10 min, the concentrations of cell lysate were measured using Micro BCA Protein Assay Kit (Thermo Scientific). About 50-60 μg total proteins were analyzed by SDS-PAGE and quantitative Western blotting. The following antibodies were purchased from commercial sources: Anti-IR-pY1150/1151 (WB, 1:1000; 19H6; labeled as pY IR, Cat. #3024), anti-AKT (WB, 1:1000; 40D4, Cat. #2920), anti-pS473 AKT (WB, 1:1000; D9E, Cat. #4060), anti-ERK1/2 (WB, 1:1000; L34F12, Cat. #4696), anti-pERK1/2 (WB, […]; 197G2, Cat. #4377), anti-IRS1-pS616 (WB, 1:1000; C15H5, Cell Signaling, Cat. #3203); anti-IRS1 (WB, 1:1000; A301-158A, Bethyl Laboratory); anti-IR (WB, 1:500, CT-3, Santa Cruz; labeled as IR for primary hepatocytes and MEFs, Cat. #sc-57342); anti-IR (WB, 1:1000; EPR23566-103; labeled as IR for FIG. 31, ab278100, Abcam); anti-Myc (WB, 1:2000; 9E10, Cat. #11667149001, Roche; labeled as IR for 293 FT cells). For quantitative western blots, anti-rabbit immunoglobulin G (IgG) (H+L) (WB, 1:5000; Dylight 800 conjugates, Cat. #5151) and anti-mouse IgG (H+L) (WB, 1:5000; Dylight 680 conjugates, Cat. #5470) (Cell Signaling) were used as secondary antibodies. The membranes were scanned with the Odyssey Infrared Imaging System (Li—COR, Lincoln, NE).

[3] = Chronic treatment by osmotic minipump; assay type: in vivo, mice
Excerpt: 2-month-old male mice were implanted with osmotic minipump releasing Humulin (0.2 U/day), S597 (0.3 U/day), or S597-S20D (0.3 U/day). […] Hepes, N=7; Humulin, N=8; S597, N=7; S597-S20D, N=4. […] Hepes, N=7; Humulin, N=8; S597, N=9; S597-S20D, N=4. Two-way ANOVA followed by Tukey's multiple comparisons test. […] Mean±SEM. Hepes, N=8; Humulin, N=7; S597, N=9; S597-S20D, N=5. […] Hepes, N=4; Humulin and S597 analogs, N=5. two-tailed Student's t-test. All graphs show Mean±SEM.
To examine the long-term effects of S597 in vivo, C57BL/6J WT mice were implanted with osmotic minipumps releasing either HEPES, Humulin, or mimetics. […] Consistent with previous work, chronic treatment of Humulin increased body weight (FIGS. 11E, 11F).

[4] = system: IR signaling; test: IR signaling in primary mouse hepatocytes; assay type: cell-based
Description: Primary hepatocytes were isolated from 2-month-old male mice with a standard two-step collagenase perfusion procedure as described earlier with some modifications. […] After 1-2 sec upon appearance of white spots in the liver, the portal vein was cut with scissors to wash out blood, and then the liver was perfused with 30 ml of Liver Digest Medium (Thermo Scientific, Cat. #17703034). Dissected liver was gently washed with low glucose DMEM and transferred to sterile culture dish containing 15 ml Liver Digest Medium. The isolated liver cells were filtered through the 70 μm cell strainer into a 50 ml tube. After centrifuge at 50 g for 5 min at 4° C., cells were washed with cold low glucose DMEM three times. […] After 2 hr., the medium was changed to serum free low-glucose DMEM.
as §1

[5] = system: C2C12 cells; test: MTT assay in C2C12 cells; assay type: cell-based
Description: To examine the function of […] on cell viability and growth, an MTT assay was performed in C2C12 cells.

[6] = system: SREBP1; test: Immunofluorescence assay for SREBP1 translocation in primary hepatocytes; assay type: cell-based, mouse; settings: 100 nM for 30 min
Description: Primary hepatocytes were as described in the primary hepatocyte isolation section. […] Cells were fixed with 4% paraformaldehyde for 10 min. The fixed cells were incubated with PBS for 30 min and 3% BSA in PBS with 0.1% Triton X-100 (0.1% PBST) for 1 hr., and then treated with anti-SREBP1 antibodies (20B12, Millipore, Cat. #MABS1987, 1:200) in 3% BSA in 0.1% PBST at 4° C. overnight. After being washed, cells were incubated with secondary antibodies (Alexa Fluor 488 goat anti-rabbit, Invitrogen, Cat. #A11008, 1:200) for 1 hr. Cells were washed and mounted on microscope slides in ProLong Gold Antifade reagent with DAPI (Invitrogen). Images were acquired as a series of 0.2 μm stacks with a Leica Thunder Imager (Leica Microsystems Inc.). Raw images were deconvolved using LAS X Software (Leica Microsystems Inc.). The nuclear edges and the nuclear SREBP1 signal were defined with Image J. Identical exposure times and magnifications were used for all comparative analyses.

[7] = system: IR signaling; test: Insulin signaling in vivo (liver, skeletal muscle, WAT lysates, western blot); set-up: species or system mice; settings: WAT; compared to vehicle treated conditions
Description: 2-3 months old male mice were fasted overnight. […] Livers were removed at 3 min after injection. White adipose tissue and skeletal muscles were removed at 5 min and 7 min after injection, respectively. Tissues were mixed with the lysis buffer B supplemented with complete Protease Inhibitor Cocktail (Roche), PhosSTOP (Sigma), and 25 U/ml turbo nuclease (Accelagen), homogenized with FisherbrandTM Bead Mill homogenizer, and then incubated on ice for 1 hr. After centrifuge at 20,817 g at 4° C. for 30 min, the concentrations of cell lysate were measured using Micro BCA Protein Assay Kit (Thermo Scientific). The lysates were then analyzed by quantitative western blotting.

[8] = target: T2, full-length mouse insulin receptor, short isoform, D1122N Y962F (mouse, UniProt P15208 28-1372); test: cryo-EM of full-length IR with S597, 5.4 Å
T2 construct: mature; Residue numbers are as printed; also called MmIR; IR
Description: (§2) The cryo-EM grid was prepared by applying 3 μl of the protein samples (6 mg/ml) to glow-discharged Quantifoil R1.2/1.3 300-mesh gold holey carbon grids (Quantifoil, Micro Tools GmbH, Germany). Grids were blotted for 4.0 seconds under 100% humidity at 4° C. before being plunged into the liquid ethane using a Mark IV Vitrobot (FEI). Micrographs were acquired on a Titan Krios microscope (FEI) operated at 300 kV with a K3 direct electron detector (Gatan), using a slit width of 20 eV on a GIF-Quantum energy filter. SerialEM 3.8 was used for the data collection. […] The defocus range was set from 1.6 μm to 2.6 μm. Each micrograph was dose-fractionated to 30 frames with a total dose of about 60 e⁻/Å².

[9] = target: T2, full-length mouse insulin receptor, …; test: cryo-EM of full-length IR with S597-N20
Description: as §2

T1 sequence (P06213 28-1370 isoform P06213-2 limits assumed): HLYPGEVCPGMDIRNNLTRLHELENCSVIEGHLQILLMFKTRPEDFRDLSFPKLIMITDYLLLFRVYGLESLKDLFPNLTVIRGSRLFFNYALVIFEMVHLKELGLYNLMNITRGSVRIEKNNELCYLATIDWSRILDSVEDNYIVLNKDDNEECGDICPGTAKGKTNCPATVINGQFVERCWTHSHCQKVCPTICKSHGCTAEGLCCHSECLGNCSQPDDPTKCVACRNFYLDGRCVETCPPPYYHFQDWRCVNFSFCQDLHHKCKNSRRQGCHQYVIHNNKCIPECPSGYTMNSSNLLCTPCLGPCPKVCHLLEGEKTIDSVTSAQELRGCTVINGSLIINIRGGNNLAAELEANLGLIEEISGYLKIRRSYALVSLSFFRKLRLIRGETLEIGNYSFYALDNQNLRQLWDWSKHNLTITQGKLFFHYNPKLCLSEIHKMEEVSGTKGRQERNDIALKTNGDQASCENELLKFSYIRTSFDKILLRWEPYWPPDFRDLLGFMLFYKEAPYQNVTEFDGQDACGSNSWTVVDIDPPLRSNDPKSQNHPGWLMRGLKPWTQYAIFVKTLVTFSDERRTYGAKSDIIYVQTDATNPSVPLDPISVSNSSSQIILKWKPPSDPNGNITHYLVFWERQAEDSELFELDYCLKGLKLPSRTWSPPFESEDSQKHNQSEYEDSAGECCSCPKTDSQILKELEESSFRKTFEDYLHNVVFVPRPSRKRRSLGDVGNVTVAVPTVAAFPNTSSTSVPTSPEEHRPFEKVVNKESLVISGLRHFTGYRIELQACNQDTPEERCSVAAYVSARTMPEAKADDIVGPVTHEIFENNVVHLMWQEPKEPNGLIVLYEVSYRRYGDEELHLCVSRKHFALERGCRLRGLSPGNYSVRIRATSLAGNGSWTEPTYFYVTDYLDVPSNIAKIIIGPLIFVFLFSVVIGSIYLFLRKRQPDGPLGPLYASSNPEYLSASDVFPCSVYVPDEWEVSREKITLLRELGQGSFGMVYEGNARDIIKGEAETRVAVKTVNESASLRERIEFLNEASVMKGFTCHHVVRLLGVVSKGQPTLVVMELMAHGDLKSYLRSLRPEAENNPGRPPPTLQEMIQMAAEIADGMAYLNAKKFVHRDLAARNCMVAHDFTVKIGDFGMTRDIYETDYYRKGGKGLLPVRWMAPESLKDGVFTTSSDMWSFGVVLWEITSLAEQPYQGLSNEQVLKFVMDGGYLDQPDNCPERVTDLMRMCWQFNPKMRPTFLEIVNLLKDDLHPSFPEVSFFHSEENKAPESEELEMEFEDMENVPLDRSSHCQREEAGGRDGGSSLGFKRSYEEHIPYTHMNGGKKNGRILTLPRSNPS
T1 sequence (P06213 763-1382 partner limits assumed): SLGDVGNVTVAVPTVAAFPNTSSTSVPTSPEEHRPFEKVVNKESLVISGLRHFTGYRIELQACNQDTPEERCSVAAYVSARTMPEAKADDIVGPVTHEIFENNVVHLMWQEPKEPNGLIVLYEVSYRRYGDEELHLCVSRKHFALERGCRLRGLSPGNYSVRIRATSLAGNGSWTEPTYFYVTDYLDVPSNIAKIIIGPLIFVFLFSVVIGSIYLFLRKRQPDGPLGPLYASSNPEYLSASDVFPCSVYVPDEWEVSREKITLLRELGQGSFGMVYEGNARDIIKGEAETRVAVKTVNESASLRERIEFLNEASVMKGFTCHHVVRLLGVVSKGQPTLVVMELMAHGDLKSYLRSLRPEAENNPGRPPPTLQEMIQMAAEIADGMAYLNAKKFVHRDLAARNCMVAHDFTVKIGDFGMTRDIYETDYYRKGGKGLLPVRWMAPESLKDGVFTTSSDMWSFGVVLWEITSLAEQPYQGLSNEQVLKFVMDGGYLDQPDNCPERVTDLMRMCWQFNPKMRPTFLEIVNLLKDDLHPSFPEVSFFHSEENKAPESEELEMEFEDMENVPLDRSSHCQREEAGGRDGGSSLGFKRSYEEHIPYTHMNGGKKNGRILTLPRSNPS
T2 sequence (P15208 28-1372 Y989F/D1149N limits assumed): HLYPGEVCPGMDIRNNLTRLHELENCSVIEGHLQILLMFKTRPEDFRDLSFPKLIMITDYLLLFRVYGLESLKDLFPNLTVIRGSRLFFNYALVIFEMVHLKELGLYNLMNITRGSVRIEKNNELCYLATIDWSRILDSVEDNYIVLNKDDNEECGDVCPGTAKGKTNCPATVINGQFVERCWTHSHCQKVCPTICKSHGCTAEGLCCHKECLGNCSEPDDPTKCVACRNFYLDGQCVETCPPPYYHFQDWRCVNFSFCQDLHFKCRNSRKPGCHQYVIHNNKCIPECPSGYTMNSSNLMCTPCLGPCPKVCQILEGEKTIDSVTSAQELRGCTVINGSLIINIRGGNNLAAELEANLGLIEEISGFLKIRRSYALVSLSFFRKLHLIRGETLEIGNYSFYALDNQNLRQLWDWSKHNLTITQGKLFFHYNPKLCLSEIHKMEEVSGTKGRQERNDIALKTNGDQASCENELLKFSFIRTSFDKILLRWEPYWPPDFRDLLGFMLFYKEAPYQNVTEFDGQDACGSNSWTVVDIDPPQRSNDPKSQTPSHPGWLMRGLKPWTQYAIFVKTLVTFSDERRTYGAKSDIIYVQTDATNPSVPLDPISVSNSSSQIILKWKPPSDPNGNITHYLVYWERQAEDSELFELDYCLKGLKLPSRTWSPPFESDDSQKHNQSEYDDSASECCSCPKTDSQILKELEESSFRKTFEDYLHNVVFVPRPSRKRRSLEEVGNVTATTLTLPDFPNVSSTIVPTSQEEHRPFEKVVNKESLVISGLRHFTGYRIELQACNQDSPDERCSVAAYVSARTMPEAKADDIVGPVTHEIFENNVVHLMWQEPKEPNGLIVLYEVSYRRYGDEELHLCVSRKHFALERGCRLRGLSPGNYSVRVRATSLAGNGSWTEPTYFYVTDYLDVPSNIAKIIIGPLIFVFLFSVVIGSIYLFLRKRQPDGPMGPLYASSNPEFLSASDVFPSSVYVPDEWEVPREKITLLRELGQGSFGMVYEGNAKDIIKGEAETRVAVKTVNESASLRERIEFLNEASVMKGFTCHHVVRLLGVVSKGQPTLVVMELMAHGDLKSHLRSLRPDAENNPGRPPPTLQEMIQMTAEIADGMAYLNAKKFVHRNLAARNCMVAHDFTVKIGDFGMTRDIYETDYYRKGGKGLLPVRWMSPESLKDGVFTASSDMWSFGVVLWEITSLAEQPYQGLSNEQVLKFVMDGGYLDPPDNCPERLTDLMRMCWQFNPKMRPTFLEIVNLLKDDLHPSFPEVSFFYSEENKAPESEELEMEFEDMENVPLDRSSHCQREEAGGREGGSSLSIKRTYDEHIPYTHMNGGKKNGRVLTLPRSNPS

S597-W6A: S597-component-2 mutant, disrupts the IR FnIII-1/S597-component-2 interaction (Ac-SLEEEAAQIECEVYGRGCPSESFYDWFERQL; disulfide 11-18 (inferred))
blood glucose levels in ITT [1]: did not reduce
blood glucose in insulin tolerance assays [1]: did not reduce glucose levels, but rather elevated them
IR activation (auto-phosphorylation of IR, pY IR) [2]: greatly reduced potency

Humulin: Humulin (human insulin), Eli Lilly
blood glucose levels in ITT [1]: lowered
body weight gain [3]: increased
C-peptide (insulin secretion) ([3]; serum, 4 h fasted mice): decreased

S597-N20: N-terminal 20 residues of S597 comprising only component-2 and the linker (Ac-SLEEEWAQIECEVYGRGCPS; disulfide 11-18 (inferred))
blood glucose levels in ITT [1]: did not reduce
blood glucose in insulin tolerance assays [1]: did not reduce glucose levels, but rather elevated them
pAKT [4]: did not induce phosphorylation
pERK [4]: did not induce phosphorylation
pY IR [4]: did not induce phosphorylation
IR activation (auto-phosphorylation of IR, pY IR) [2]: greatly reduced potency

insulin-like growth factor 1 [IGF1]
cell viability and growth [5]: significantly increased

insulin
nuclear translocation of SREBP1 [6]: stimulated to the same level
cell viability and growth [5]: significantly increased
pAKT [4]: increased
pERK [4]: increased
pY IR [4]: increased
pAKT level [7]: significantly increased
pERK level [7]: neither insulin nor S597 had a statistically significant effect

S597-F27A: S597-component-1 mutant, interrupts the IR L1/S597-component-1 interaction (Ac-SLEEEWAQIECEVYGRGCPSESFYDWAERQL; disulfide 11-18 (inferred))
blood glucose levels in ITT [1]: did not reduce
blood glucose in insulin tolerance assays [1]: did not reduce glucose levels, but rather elevated them
IR activation (auto-phosphorylation of IR, pY IR) [2]: greatly reduced potency

B1: S597 (peptide)
peptide: Ac-SLEEEWAQIECEVYGRGCPSESFYDWFERQL
modifications: disulfide 11-18 (inferred)
notes: Component-2 (N-terminal helix), linker, component-1 (C-terminal helix); also called full-length S597
stoichiometry (S597: IR dimer) [8]: 2 S597 per IR dimer

B2: S597-N20 (peptide)
peptide: Ac-SLEEEWAQIECEVYGRGCPS
modifications: disulfide 11-18 (inferred)
notes: also called S597-component-2; S597-component-2 alone
binding result [9]: binds
